Values of other authors, collected in patent US20040087644A1, “Pharmaceutical composition in capsules that comprises a non-steroidal antiinflamatory and an optiate analgesic for handling pain” (Leopoldo Espinosa Abdala, priority 2002, published 2004).

Tests used:
[1] = tested on: pain; settings: clinical studies, compared with opiates
[2] = in vivo

O=C(c1ccccc1)c1ccc2n1CCC2C(=O)O (centres unmarked) [Ketorolac]
analgesic efficiency [1]: comparable with opiates
dose excreted through the urine without changes [2]: About 90%
